Data as given in PMC11040670, “Mechanistic and Kinetic Insights into Cellular Uptake of Biomimetic Dinitrosyl Iron Complexes and Intracellular Delivery of NO for Activation of Cytoprotective HO-1” (JACS Au, 2024).
Marks after values point to notes of the source that are not given here.

What was measured:
HMOX1 gene = assay: Real-time PCR of HMOX1 gene in MSC; format: cell-based, human; conditions: at 3 h, 100 μM DNIC–COOH or 2.5 μM DNIC–COOMe
Protocol: After treatment of (1) 100 μM of DNIC–COOH to MSC, (2) 100 μM of DNIC–COOH to N2a, (3) 75 μM of DNIC–COOH to HCEC, (4) 2.5 μM of DNIC–COOMe to MSC, (5) 10 μM of DNIC–COOMe to N2a, and (6) 1 μM of DNIC–COOMe to HCEC, respectively, the total RNA of the treated cells was extracted using TRIzol Reagent (Thermo Fisher Scientific) in order to assess the time-dependent change in the mRNA level of HO-1. After the synthesis of complementary DNA with the High-Capacity Reverse Transcription Kit, qPCR was conducted using Power SYBR Green PCR Master Mix with the StepOnePlus Real-Time PCR System (Thermo Fisher Scientific). […] The relative mRNA levels of target genes were determined by a comparative threshold cycle method and normalized to that of RPL13A (or GAPDH). The mRNA level of HO-1 in the MSC, N2a, and HCEC cells, respectively, that received the (1) sequential treatments of 1H-[1,2,4]oxadiazolo-[4,3-a]quinoxalin-1-one (ODQ, 10 μM for 1 h) and DNIC–COOH (100 μM in MSC for 3 h, 100 μM in N2a for 10 h, and 75 μM in HCEC for 6 h) or (2) cotreatment of 2-phenyl-4,4,5,5-tetramethylimidazoline-1-oxyl-3-oxide (PTIO, 100 μM in MSC, 200 μM in N2a, and 100 μM in HCEC) and DNIC–COOH (100 μM in MSC for 3 h, 100 μM in N2a for 10 h, and 75 μM in HCEC for 6 h) was also evaluated under a similar procedure.

BSA = target: T1, BSA (Bos taurus, UniProt P02769); assay: Formation and degradation of albumin-bound DNIC in cell culturing media with FBS (EPR); format: in vitro ADME, bovine
T1 construct: 2 mL of αMEM with the presence of 20% FBS; from tissue; host or cells: fetal bovine serum (FBS) in αMEM / MEM / HSFM culture media
Protocol: 50 μM of DNIC–COOH was prepared via addition of 1 μL of 100 mM stock solution of DNIC–COOH in DMSO to 2 mL of αMEM with the presence of 20% FBS. After this solution was incubated at 37 °C for 0, 0.5, 1, 2, 3, 4, 8, and 24 h, respectively, EPR spectra of 100 μL aliquots of this solution were measured. Moreover, double integration of the EPR signal was executed to obtain the integrated EPR signal intensity under each condition, which was further utilized to characterize the time-dependent formation and degradation of BSA-bound DNIC. EPR investigations on the formation and degradation of protein-bound DNICs upon incubation of (1) 50 μM DNIC–COOMe in αMEM with the presence of 20% FBS, (2) 50 μM DNIC–COOH (or DNIC–COOMe) in MEM with the presence of 5% FBS, and (3) 50 μM DNIC–COOH (or DNIC–COOMe) in HSFM with the presence of 2% FBS were performed in a similar manner. In addition, EPR spectra for 50 μM of DNIC–COOH (or 50 μM of DNIC–COOMe) in αMEM, MEM, and HSFM, respectively, were also measured.

[1] = NO-release reactivity of DNICs (total nitrate/nitrite assay); format: physicochemical; conditions: dinuclear DNIC 25 μM, phosphate buffer (pH 7.4), no additive, normoxia, 37 °C
Protocol: The NO-release reactivity of DNICs in 50 mM potassium phosphate buffer (pH 7.4) under normoxia condition at 37 °C was investigated using Nitrate/Nitrite Colorimetric Assay Kit (Item No. 780001, Cayman). After addition of 10 μL of 100 mM stock solution of DNIC–COOH (or DNIC–COOMe) in DMSO to 990 μL of 50 mM potassium phosphate buffer (pH 7.4), 25 μM of DNIC–COOH (or DNIC–COOMe) was prepared by the addition of 0.125 mL of this 1 mM solution of DNIC–COOH (or DNIC–COOMe) to 4.875 mL of 50 mM potassium phosphate buffer (pH 7.4). This solution was incubated at 37 °C under normoxia condition for 0, 1, 2, 4, 8, 24, 48, and 72 h, respectively. Then, 40 μL of the solution was collected to assess the release of NO using a Nitrate/Nitrite Colorimetric Assay Kit (Item No. 780001, Cayman). After each 40 μL aliquot of the aqueous solution was mixed with 40 μL of kit assay buffer, 10 μL of Enzyme Cofactor Mixture (Item No. 780012) and 10 μL of nitrate reductase mixture (Item No. 780010) were added before this mixture solution was incubated at room temperature for 1 h. […] The absorbance at 540 nm was then recorded using a microplate reader (SpectraMax iD3, Molecular Devices, San Jose, CA) with a reference wavelength of 800 nm. […]

T1 sequence (P02769 25-607): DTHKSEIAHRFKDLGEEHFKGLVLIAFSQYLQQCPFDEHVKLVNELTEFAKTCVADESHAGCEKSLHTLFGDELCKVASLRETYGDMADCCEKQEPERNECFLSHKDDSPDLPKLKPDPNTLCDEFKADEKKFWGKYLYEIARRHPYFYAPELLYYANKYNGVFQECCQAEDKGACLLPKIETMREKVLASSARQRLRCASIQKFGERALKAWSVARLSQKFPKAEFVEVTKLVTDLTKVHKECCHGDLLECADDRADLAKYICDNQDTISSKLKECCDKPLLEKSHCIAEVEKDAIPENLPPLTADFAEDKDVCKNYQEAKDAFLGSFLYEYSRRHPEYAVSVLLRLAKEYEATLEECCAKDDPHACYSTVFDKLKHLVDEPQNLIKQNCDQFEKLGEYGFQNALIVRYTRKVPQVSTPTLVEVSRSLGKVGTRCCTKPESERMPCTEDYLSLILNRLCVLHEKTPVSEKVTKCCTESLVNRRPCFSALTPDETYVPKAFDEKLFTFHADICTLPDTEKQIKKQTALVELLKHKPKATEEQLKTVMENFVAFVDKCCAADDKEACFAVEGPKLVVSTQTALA

| SMILES | activation of HMOX1 gene (HMOX1 gene) | binding to BSA yielding albumin-bound DNIC (BSA) | t1/2 for release of NO from DNICs [1] |
| --- | --- | --- | --- |
| O=[N][Fe]1([N]=O)[SH](CCC(=O)O)[Fe]([N]=O)([N]=O)[SH]1CCC(=O)O (stereo not drawn) [DNIC–COOH, [(NO)2Fe(μ-SCH2CH2COOH)2Fe(NO)2]] | 49.5 ± 2.9 fold | slow binding | 10.7 ± 1.4 ^e h |
| COC(=O)CC[SH]1[Fe]([N]=O)([N]=O)[SH](CCC(=O)OC)[Fe]1([N]=O)[N]=O (stereo not drawn) [DNIC–COOMe, [(NO)2Fe(μ-SCH2CH2COOCH3)2Fe(NO)2]] | 18.8 ± 2.3 fold | rapid binding | 9.1 ± 0.6 ^e h |
